“Also recorded” adds a separate entry of the source.

The target of data set [1] is T1, [^3H]dexamethasone-activated glucocorticoid receptor (Homo sapiens, UniProt P04150).
T1 construct: glucocorticoid receptor in brain cells; host or cells: brain cells
T1 sequence (P04150 1-777): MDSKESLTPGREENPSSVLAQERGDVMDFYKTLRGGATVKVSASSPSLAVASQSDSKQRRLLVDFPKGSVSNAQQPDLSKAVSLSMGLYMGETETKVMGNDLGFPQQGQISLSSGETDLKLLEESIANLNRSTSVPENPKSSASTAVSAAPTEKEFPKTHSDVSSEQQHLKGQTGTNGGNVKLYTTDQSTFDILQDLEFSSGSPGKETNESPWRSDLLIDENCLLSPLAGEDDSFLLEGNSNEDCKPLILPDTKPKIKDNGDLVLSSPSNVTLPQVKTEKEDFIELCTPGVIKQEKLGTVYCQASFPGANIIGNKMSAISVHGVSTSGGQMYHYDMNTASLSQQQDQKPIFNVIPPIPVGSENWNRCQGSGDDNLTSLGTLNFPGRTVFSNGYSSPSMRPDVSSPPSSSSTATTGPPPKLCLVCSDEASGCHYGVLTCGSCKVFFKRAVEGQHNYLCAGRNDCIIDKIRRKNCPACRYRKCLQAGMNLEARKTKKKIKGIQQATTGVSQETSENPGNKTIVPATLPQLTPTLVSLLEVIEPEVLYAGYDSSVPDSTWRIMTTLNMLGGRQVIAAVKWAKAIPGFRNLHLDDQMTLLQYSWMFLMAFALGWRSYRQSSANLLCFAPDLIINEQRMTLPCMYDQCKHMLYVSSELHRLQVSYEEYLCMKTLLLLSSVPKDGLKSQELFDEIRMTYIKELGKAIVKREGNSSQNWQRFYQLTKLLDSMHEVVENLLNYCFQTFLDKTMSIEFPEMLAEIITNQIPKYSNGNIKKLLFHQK
The settings on record: brain cells; cited from earlier work.

Data set [2] has as its system midlife major and minor depression or dysthymia. The settings on record: cited from earlier work.
For data set [3], the system named is treatment-resistant patients. Kind of data set: Other treatments of the Example 3 patients (history). The following applies: for response to other treatment: Example 3 patients 2, 3, 5, 6, 7, before 7-keto DHEA. An excerpt:
Patient 2 A married person was anxious all their life, hypertensive, fragile, had 4 years of depression due to stress and received 12 years of psychoanalysis.

The test system of data set [4] is women with severe chronic PTSD. The experiment in a line: Other medications of the Example 1 case patients (history). The format is in vivo, human. How it is done: Case 2. patient two, a person with chronic severe PTSD (DSM-IV) associated with a history of severe childhood physical and sexual abuse, had remained highly symptomatic despite undergoing one and a half years of individual and group CBT and receiving paroxetine up to 30 mg daily, from other practitioners, for more than 4 years. […] They wished to be tapered off paroxetine because they had gained 40 lb, and after becoming obese, they also became hypertensive. Ms. […] Although their paroxetine dosage was tapered to 5 mg every other day, and lamotrigine 100 mg and topiramate 75 mg were administered daily, they remained highly symptomatic.
Case 4. patient one was in psychiatric treatment for over 25 years, including a long course of psychoanalysis and 2 years of CBT. They had been treated with adequate trials of 2 tricyclic antidepressants, 3 SSRIs, venlafaxine, 2 monoamine oxidase inhibitors, 3 anticonvulsants, many typical and atypical antipsychotics, lithium, bupropion, trazodone, and nefazodone.
[…] symptoms persisted in spite of psychotherapy for more than 15 years and numerous trials on medications.

Where [5] appears, read: Case 4, lorazepam 1 mg p.r.n., aripiprazole 2.5 mg daily, pemoline 75 mg daily, phentermine 30 mg daily.

In the case of `C[C@]12CC[C@H](O)CC1=C[C@@H](O)[C@@H]1[C@@H]2CC[C@]2(C)C(=O)CC[C@@H]12` [7 alpha-hydroxy DHEA], the “preventing the nuclear uptake of [^3H]dexamethasone-activated glucocorticoid receptor” value in data set [1] was “efficient”.

Consider `C[C@]12CC[C@H](O)CC1=C[C@H](O)[C@@H]1[C@@H]2CC[C@]2(C)C(=O)CC[C@@H]12` [7 beta-hydroxy DHEA], for which the “preventing the nuclear uptake of [^3H]dexamethasone-activated glucocorticoid receptor” value in data set [1] is “efficient”. In the case of `C[C@]12CC[C@H](O)CC1=CC[C@@H]1[C@@H]2CC[C@]2(C)C(=O)CC[C@@H]12` [DHEA, Dehydroepiandrosterone], the induced mania entry in data set [2] (case reports) is “induced mania has been reported”. The effectiveness in depression result in data set [2] (one open series and 3 placebo-controlled, double-blind, randomized trials, midlife major and minor depression or dysthymia) is “supported the effectiveness”. `CN(C)CCC=C1c2ccccc2COc2ccccc21` [Doxepin]: the “response to other treatment” value in data set [3] was “partially responded”. Further, in data set [3] (human, in vivo), the “tolerability of other treatment” value is “intolerant of the side effects”.

Regarding `COC(=O)C(c1ccccc1)C1CCCCN1` (centres unmarked) [Methylphenidate], the adverse effect result in data set [4] (Case 4) is on record as “made their anxiety worse”. Consider `NC1=NC(=O)C(c2ccccc2)O1` (centres unmarked) [Pemoline], for which the benefit result in data set [4] (setting [5]) is “enough energy to function”.

With `CN1CCN2c3ncccc3Cc3ccccc3C2C1` (centres unmarked) [Remeron], the “response to other treatment” value in data set [3] is listed as “partially helped”. On the same count and under the same terms, in the case of `C[S+](CC[C@H](N)C(=O)O)C[C@H]1O[C@@H](n2cnc3c(N)ncnc32)[C@H](O)[C@@H]1O` (some centres unmarked) [SAMe, S-adenosylmethionine] it was “partially helped; also recorded: made the Doxepin work better”. Regarding `O=C1CCc2ccc(OCCCCN3CCN(c4cccc(Cl)c4Cl)CC3)cc2N1` [aripiprazole], the “response to other treatment” value in data set [3] is reported as “partially responded”. Also, the benefit result in data set [4] (setting [5]) was “some relief from anxiety, depression, and agitation”. In addition, in data set [4] (human, in vivo), the weight gain stood at 30 lb. For the compound `C[C@H](N)Cc1ccccc1` [dextroamphetamine], the adverse effect entry in data set [4] (Case 4) was “made their anxiety worse”. For the compound `CNCCC(Oc1ccc(C(F)(F)F)cc1)c1ccccc1` (centres unmarked) [fluoxetine], the “adverse effect of failed trial” value in data set [4] (human, in vivo) was “agitated and irritable”.

As for `Nc1nnc(-c2cccc(Cl)c2Cl)c(N)n1` [lamotrigine], the “response to other treatment” value in data set [3] is on record as “partially improved”. Turning to `O=C1Nc2ccc(Cl)cc2C(c2ccccc2Cl)=NC1O` (centres unmarked) [lorazepam], the benefit result in data set [4] (setting [5]) is “some relief from anxiety, depression, and agitation”.

Turning to `Fc1ccc([C@@H]2CCNC[C@H]2COc2ccc3c(c2)OCO3)cc1` [paroxetine], the benefit result in data set [4] (Case 2, patient's own judgement) was “not helping their chronic severe anxiety and irritability”.

For `CC(C)(N)Cc1ccccc1` [phentermine], in data set [4] (setting [5]), the benefit result is reported as “enough energy to function”. For `CN[C@H]1CC[C@@H](c2ccc(Cl)c(Cl)c2)c2ccccc21` [sertraline], the “response to other treatment” value in data set [3] is on record as “partially improved”. In addition, the benefit entry in data set [4] (Case 5, sertraline for 6 years) was “minimal benefit”. The “adverse effect of failed trial” value in data set [4] (human, in vivo) was “agitated and irritable”. As for `COc1ccc(C(CN(C)C)C2(O)CCCCC2)cc1` (centres unmarked) [venlafaxine], the “response to other treatment” value in data set [3] is “partially responded”. The “tolerability of other treatment” value in data set [3] (Example 3 patients 6 and 7) is recorded as “did not like the side effects”. For the same compound, in data set [4] (Case 5, sertraline for 6 years), the benefit entry is recorded as “slightly helpful”. Moreover, the adverse effect entry in data set [4] (Case 5, venlafaxine at 300 mg daily) is “overly activated”.
